Measured values published in paper PMC6283615, “Anilinoquinoline based inhibitors of trypanosomatid proliferation” (PLoS Neglected Tropical Diseases, 2018).
In brackets after ≈: the same amount, converted by molar mass. Read-outs that look alike come from different tables or passages of the source.

How the values were obtained:
L. major amastigote = test: L. major intracellular amastigote luciferase assay in RAW 264.7 macrophages; assay type: cell-based, Leishmania major; details: Leishmania major, RAW264.7; intracellular amastigotes in RAW 264.7 macrophages, 96 h
How it was run: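 Murine RAW 264.7 macrophages were infected overnight with luciferase-expressing L. major metacyclic promastigotes (MOI 1:10). Non-internalized parasites were washed off before 96 h compound exposure (0.5–10,000 ng/mL) at 37°C, 5% CO2.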

[1] = test system: T. b. brucei (strain 427); test: T. b. brucei proliferation assay (PrestoBlue, 48 h); assay type: cell-based, Trypanosoma brucei brucei; details: Trypanosoma brucei
How it was run: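 T. b. brucei strain 427, 2.5×10^3 per well in HMI-9, exposed to compounds from 50 μM in 1:2 dilutions, in triplicate. Incubated 48 h at 37°C, 5% CO2. PrestoBlue added for 4 h more, fluorescence read at ex 530/em 590 nm.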

[2] = test system: T. cruzi amastigote (Tulahuen strain expressing β-galactosidase); test: Intracellular T. cruzi assay in 3T3 cells (beta-galactosidase, 96 h); assay type: cell-based, Trypanosoma cruzi; details: for EC50: Trypanosoma cruzi, TULAHUEN, read-out: T. cruzi amastigote EC50
How it was run: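 3T3 cells in phenol-red-free DMEM with 2% FBS were infected with Tulahuen β-galactosidase trypomastigotes, 5×10^4 per well, and exposed to compounds from 50 μM in 1:2 serial dilutions, in triplicate. After 96 h at 37°C, 5% CO2, 500 μM CPRG in PBS with 0.5% NP40 was added for 4 h; absorbance was read at 590–595 nm.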

T. congolense IL3000 = test: In vitro drug sensitivity assay for T. congolense (72 h); assay type: cell-based; details: Trypanosoma congolense, IL3000 strain
Experimental: In vitro drug sensitivity assay for T. congolense (72 h): Compounds were tested in vitro for efficacy against the IL3000 T. congolense (drug sensitive) strain which was originally derived from the Trans Mara I strain, isolated from a bovine in 1966 in Kenya. […] Compounds were assayed in at least three separate, independent experiments and an 11-point dilution curve was used to determine the EC50 values. Bloodstream form trypanosomes were supported in HMI-9 medium containing 20% bovine serum and were incubated with test compounds for 69 h at 34°C in a humidified atmosphere containing 5% CO2. Thereafter, 10 μL of Resazurin dye (12.5 mg in 100 mL of phosphate-buffered saline, Sigma-Aldrich, Buchs, Switzerland) was added for an additional 3 h. Plates were read using a fluorescence plate reader (Spectramax, Gemini XS, Bucher Biotec, Basel, Switzerland) using an excitation wavelength of 536 nm and an emission wavelength of 588 nm.

[3] = test system: T. vivax STIB 719 / ILRAD 560; test: Ex vivo drug sensitivity assay for T. vivax (48 h); assay type: cell-based; details: Trypanosoma vivax, STIB719, 48 h
Experimental: Ex vivo drug sensitivity assay for T. vivax (48 h): Compounds were tested ex vivo against the STIB 719 / ILRAD 560 T. vivax (drug sensitive) strain which originated from the Y486 strain, isolated from a naturally infected bovine in 1976 in Zaria, Nigeria. Compounds were assayed in at least three separate, independent experiments and an 11-point dilution curve was used to determine the EC50 values. Bloodstream form trypanosomes were harvested from a highly parasitaemic mouse (via cardiac puncture) and were incubated with test compounds for 45 h at 37°C in a humidified atmosphere containing 5% CO2, supported in HMI-9 medium containing 20% bovine serum. Thereafter, Resazurin dye was added to monitor trypanosome viability as described in the preceding section.

Aqueous solubility = assay type: physicochemical
[4] = Human plasma protein binding; assay type: in vitro ADME; details: for fraction unbound: read-out: Human PPB (converted)
[5] = Human liver microsome intrinsic clearance; assay type: in vitro ADME; details: for microsomal CLint: liver microsomes
[6] = Rat hepatocyte intrinsic clearance; assay type: in vitro ADME; details: for hepatocyte CLint: hepatocytes
P. fal. D6 = test system: P. fal. D6; parameters: method as in PMID 26087257, PMID 29301082; details: previously reported; cited from earlier work
LogD7.4 = assay type: physicochemical; details: pH 7.4
NIH/3T3 cells = test: Drug toxicity to 3T3 cells (Alamar Blue, 96 h); assay type: cell-based
Experimental: In a 96-well plate, 5×10^4 NIH/3T3 (ATCC CRL-1658) cells (purchased from ATCC) in DMEM without phenol red supplemented with 2% FBS were added to each well. Cells were incubated for 2 h to allow for attachment. Compounds were added in triplicates at 200 μM and in serial dilutions 1:2 and incubated at 37°C, 5% CO2 for 96 h. […] Following incubation, 10 μL of Alamar Blue (ThermoFisher) were added to each well and cells incubated at 37°C, 5% CO2 for 4 h. Absorbance was read at 590–595 nm.

HepG2 cells = test: Drug toxicity to HepG2 cells (MTT, 48 h); assay type: cell-based, human; details: tested concentration ranges based on compound solubility
How it was run: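 HepG2 cells plated overnight, then exposed 48 h to twelve 1.6-fold dilutions (57–10,000 ng/mL) in duplicate at 37° C, 5% CO2. MTT added for 1 h at room temperature; formazan dissolved in acidified isopropanol, absorbance read.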

[7] = parameters: method as in PMID 29301082; details: lapatinib, Fig 1; cited from earlier work

With CN1CCN(S(=O)(=O)c2ccc(-c3ccc4c(Nc5ccc(OCc6cccc(F)c6)c(Cl)c5)ccnc4c3)cc2)CC1 [Compound 1] the EC50 (L. major amastigote) was 1600 nM, the EC50 [1] was 79 nM and the EC50 ([2]; NIH3T3, 96 h) was 730 nM. The EC50 (T. congolense IL3000) was 140 nM, the EC50 [3] was 40 nM and the solubility (Aqueous solubility) was 0.3 µM (≈ 0.185 µg/mL). The fraction unbound [4] was < 0.01, the microsomal CLint [5] was 140 µL/min/mg and the “Rat Hepatocyte CLint” value [6] was 20 μL/min/10^6 cells. The EC50 (P. fal. D6) was 19 nM.

With COc1ccc(Nc2ccnc3cc(-c4ccc(S(=O)(=O)N5CCN(C)CC5)cc4)ccc23)cc1Cl [Compound 6] the EC50 (L. major amastigote) was 1400 nM, the EC50 [1] was 220 nM and the EC50 ([2]; NIH3T3, 96 h) was 3800 nM. It also gave an EC50 (T. congolense IL3000) of 860 nM, an EC50 [3] of 160 nM and a solubility (Aqueous solubility) of 100 µM (≈ 52.3 µg/mL). For the same molecule, the “Human PPB” value [4] was 99%, the microsomal CLint [5] was 270 µL/min/mg and the hepatocyte CLint [6] was 44 µL/min/1e6 cells. For the same molecule, the logD (LogD7.4) was < 1.

CN1CCN(c2nsnc2-c2ccc3c(Nc4ccc(OCc5cccc(F)c5)c(Cl)c4)ccnc3c2)CC1 [Compound 15] gave an EC50 (L. major amastigote) of 960 nM, an EC50 [1] of 140 nM and an EC50 ([2]; NIH3T3, 96 h) of 4700 nM. The EC50 (T. congolense IL3000) was 390 nM, the EC50 [3] was 210 nM and the solubility (Aqueous solubility) was < 0.1 µM. It also gave a microsomal CLint [5] of 35 µL/min/mg, a hepatocyte CLint [6] of 35 µL/min/1e6 cells and a logD (LogD7.4) of 4.1.

With Fc1cccc(COc2ccc(Nc3ccnc4cc(-c5cn[nH]c5)ccc34)cc2Cl)c1 [Compound 16] the EC50 (L. major amastigote) was 830 nM, the EC50 [1] was 110 nM and the EC50 ([2]; NIH3T3, 96 h) was 920 nM. The “SI (T. cruzi)” value ([2]; selectivity index calculated relative to 3T3 cells) was 2.5, the EC50 (T. congolense IL3000) was 470 nM and the EC50 [3] was 150 nM. For the same molecule, the solubility (Aqueous solubility) was 12 µM (≈ 5.34 µg/mL), the fraction unbound [4] was < 0.01 and the microsomal CLint [5] was < 3 µL/min/mg. It also gave a hepatocyte CLint [6] of 17 µL/min/1e6 cells and a logD (LogD7.4) of 4.6.

With CC(C)(C)OC(=O)Nc1ccc2c(Nc3ccc(OCc4cccc(F)c4)c(Cl)c3)ccnc2c1 [Compound 21] the EC50 (L. major amastigote) was 1100 nM, the EC50 [1] was 150 nM and the EC50 ([2]; NIH3T3, 96 h) was 600 nM. For the same molecule, the EC50 (T. congolense IL3000) was 830 nM, the EC50 [3] was 290 nM and the solubility (Aqueous solubility) was 0.2 µM (≈ 0.0988 µg/mL). It also gave a microsomal CLint [5] of 29 µL/min/mg, a hepatocyte CLint [6] of 48 µL/min/1e6 cells and a logD (LogD7.4) of 4.3.

In the case of COc1ccc(Nc2ccnc3cc(-c4cnc(N5CCN(C)CC5)nc4)ccc23)cc1Cl [Compound 23], the EC50 (L. major amastigote) is reported as 2000 nM, the EC50 ([2]; NIH3T3, 96 h) is reported as 620 nM and the “3T3 TC50” value (NIH/3T3 cells) is reported as 4.9 µM. The “HepG2 TC50” value (HepG2 cells) was > 3 µM, the EC50 (T. congolense IL3000) was 140 nM and the EC50 [3] was 40 nM. For the same molecule, the solubility (Aqueous solubility) was < 1 µM, the “Human PPB” value [4] was 98% and the “Human Liver Microsome CLint” value [5] was 170 µL/min/mg. For the same molecule, the hepatocyte CLint [6] was 45 µL/min/1e6 cells and the LogD7.4 (LogD7.4) was 4.3.

In the case of N=C(N)c1ccc(/N=N/Nc2ccc(C(=N)N)cc2)cc1 [Diminazene, diminazene aceturate, reference compound], the EC50 [1] is reported as 9 nM, the EC50 (T. congolense IL3000) is reported as 130 nM and the EC50 [3] is reported as 100 nM.

CC[n+]1c(-c2ccccc2)c2cc(N/N=N/c3cccc(C(=N)N)c3)ccc2c2ccc(N)cc21 [Isometamidium, isometamidium chloride, reference compound] showed an EC50 (T. congolense IL3000) of 6 nM and an EC50 [3] of 0.12 nM.

In the case of CS(=O)(=O)CCNCc1ccc(-c2ccc3ncnc(Nc4ccc(OCc5cccc(F)c5)c(Cl)c4)c3c2)o1 [Lapatinib, lapatinib, reference compound], the EC50 (L. major amastigote) is listed as 11000 nM, the EC50 ([2]; NIH3T3, intracellular in 3T3 cells, 96 h) is listed as 13000 nM and the EC50 (P. fal. D6) is listed as 470 nM. The solubility [7] was 12 µM (≈ 6.97 µg/mL).
